In paper PMC8846325, “A Photoactivable Natural Product with Broad Antiviral Activity against Enveloped Viruses, Including Highly Pathogenic Coronaviruses” (Antimicrobial Agents and Chemotherapy, 2022):
Read-outs that look alike come from different tables or passages of the source.

Experiments:
Assay type in all cases: cell-based
[1] = system: HCoV-229E; assay: HCoV-229E-Luc infection inhibition luciferase assay; conditions: for antiviral activity against HCoV-229E-Luc, screening of related compounds: Huh-7 cells, 1, 5, 10 µM, light exposure; for light dependence of antiviral effect: HCoV-229E, light versus dark
[2] = MTS cell toxicity assay, Huh-7 cells; conditions: human, Huh-7 cells, 24 h, light exposure; read-out: CC50 (μM) 24 h
Description: (§1) A total of 6 × 10^4 Huh-7, Vero-E6, and Vero-81 cells were seeded in 96-well plates and incubated for 16 h at 37°C in a 5% CO2 incubator. The cells were then treated with increasing concentrations of the compound of interest. One hour after inoculation, cells were taken out of the incubator to be exposed to the white light of a biosafety cabinet (BSC) for 10 min, after which cells were further incubated in the dark at 37°C and 5% CO2 for 23 h. The BSC’s light source lamp consists of one fluorescent tube of 36 W, 3,350 lumen, white light. An MTS [3-(4,5-dimethylthiazol-2-yl)-5-(3-carboxymethoxyphenyl)-2-(4-sulfophenyl)-2H-tetrazolium]-based viability assay (Cell Titer 96 aqueous nonradioactive cell proliferation assay; Promega) was performed as recommended by the manufacturer. The absorbance of formazan at 490 nm was detected using a plate reader (ELX 808 Bio-Tek Instruments Inc.). Each measure was performed in triplicate, and each experiment was repeated at least 3 times.
(§2) 6×104 Huh-7, Vero-E6 and Vero-81 cells were seeded in 96-well plates and incubated for 16 h at 37 °C 5% CO2 incubator. The cells were then treated with increasing concentrations of the compound of interest. One hour after inoculation, cells were either left in the incubator (dark condition) or taken out to be exposed to the white light of the biosafety cabinet (BSC) for 10 min (light condition), after which cells were further incubated in the dark at 37 °C 5% CO2 for 23 h. BSC’s light source lamp consists of one fluorescent tube of 36W, 3350 lumen white light. An MTS [3-(4,5-dimethylthiazol-2-yl)-5-(3-carboxymethoxyphenyl)-2-(4-sulfophenyl)- 2H-tetrazolium]-based viability assay (Cell Titer 96 Aqueous non-radioactive cell proliferation assay, Promega) was performed as recommended by the manufacturer. The absorbance of formazan at 490 nm was detected using a plate reader (ELX 808 Bio-Tek […]
(§3) Instruments Inc). […]

[3] = system: Huh-7 cells; assay: MTS cell toxicity assay, Huh-7 cells; conditions: for CC50: Huh-7 cells, 24 h, light exposure
Description: as §1, §2, §3

[4] = system: HCoV-229E; assay: Quencher assay (singlet oxygen quenchers)
[5] = system: SARS-CoV-2
[6] = against HCoV-229E, Huh-7 cells, normal white light exposure, read-out: IC50

| Molecule | antiviral activity against HCoV-229E-Luc, screening of related compounds [1] | light dependence of antiviral effect [1] | IC50 [1, 6] | CC50 [3] | also measured |
| --- | --- | --- | --- | --- | --- |
| C1=Cc2nc1cc1ccc([nH]1)c(-c1ccccc1)c1nc(cc3ccc([nH]3)c2-c2ccccc2)C=C1 [5,15-DPP] | not active at the tested concentrations | – | – | – | – |
| C=Cc1c(C)c2cc3nc(c(CC(=O)O)c4[nH]c(cc5nc(cc1[nH]2)C(C)=C5CC)c(C)c4C(=O)O)[C@@H](CCC(=O)O)[C@@H]3C [Chlorin e6, chlorin e6] | – | light-dependent antiviral effect | – | – | IC50 ([1]; Human coronavirus 229E, Huh-7): 0.72 µM; CC50 at 24 h [2]: 21.4 µM |
| C=Cc1c(C)c2cc3nc(c4c5[n-]c(cc6nc(cc1[n-]2)C(C=O)=C6CC)c(C)c5C(=O)[C@@H]4C(=O)OC)[C@@H](CCC(=O)OC/C=C(\C)CCC[C@H](C)CCC[C@H](C)CCCC(C)C)[C@@H]3C.[Mg+2] [Chlorophyll b] | not active at the tested concentrations | – | – | – | – |
| CCC1=C(C)c2cc3[nH]c(cc4nc(cc5c(CCC(=O)O)c(C)c(cc1n2)n5C)C(CCC(=O)O)=C4C)c(C)c3CC [N-Methyl mesoporphyrin IX, N-methyl mesoporphyrin IX] | – | light-dependent antiviral effect | 1.25 µM | > 80 µM | antiviral activity under dark conditions ([1]; Huh-7 cells): showed antiviral activity under dark conditions |
| [N-]=[N+]=[N-].[Na+] [NaN3] | – | – | – | – | effect of quencher on antiviral action of Pba [4]: able to reduce the action of Pba |
| C=Cc1c(C)c2cc3nc(c4c5[nH]c(cc6nc(cc1[nH]2)C(C)=C6CC)c(C)c5C(=O)C4)[C@@H](CCC(=O)O)[C@@H]3C [PyroPba, pyropheophorbide a] | – | light-dependent antiviral effect | – | – | IC50 ([1]; Human coronavirus 229E, Huh-7): 0.35 µM; CC50 at 24 h [2]: 2.67 µM; toxicity on Huh-7 cells, screening of related compounds ([3]; 5, 10, and 25 µM, light): toxic at tested concentrations |
| O=C1OC2(c3cc(I)c(O)c(I)c3Oc3c2cc(I)c(O)c3I)c2c(Cl)c(Cl)c(Cl)c(Cl)c21 [Rose Bengale] | moderate antiviral activity | – | 2.86 µM | > 80 µM | – |
| Cc1c(C)c2c(c(C)c1O)CCC(C)(C(=O)O)O2 (centres unmarked) [Trolox] | – | – | – | – | effect of quencher on antiviral action of Pba ([4]; quencher 10 mM, Pba 0.5 or 1 μM): able to reduce the action of Pba |
| C=CC1=C(C)c2cc3[n-]c(cc4[n-]c(cc5nc(cc1n2)C(C)=C5C=C)c(C)c4CCC(=O)O)c(CCC(=O)O)c3C.[Zn+2] [Zn protoporphyrin IX, Zn-protoporphyrin IX] | – | light-dependent antiviral effect | 0.79 µM | 16.6 µM | – |
| CCN(CC)CCCC(C)Nc1ccnc2cc(Cl)ccc12 (centres unmarked) [chloroquine, reference compound] | – | – | – | – | infectivity relative to normal levels, compound added more than 2 h after inoculation [5]: around 60% |
| c1ccc2c(c1)-c1nc-2nc2[nH]c(nc3nc(nc4[nH]c(n1)c1ccccc41)-c1ccccc1-3)c1ccccc21 [phthalocyanine] | not active at the tested concentrations | – | – | – | – |
| Oc1cccc(-c2c3nc(c(-c4cccc(O)c4)c4ccc([nH]4)c(-c4cccc(O)c4)c4nc(c(-c5cccc(O)c5)c5ccc2[nH]5)CC4)C=C3)c1 [temoporfin] | moderate antiviral activity | – | – | – | – |
| HPPH | – | light-dependent antiviral effect | 1.14 µM | 8.13 µM | – |
| N-methyl protoporphyrin IX | – | light-dependent antiviral effect | 1.21 µM | > 80 µM | antiviral activity under dark conditions ([1]; Huh-7 cells): showed antiviral activity under dark conditions |
| hemin chloride | moderate antiviral activity | – | – | – | – |
